These results are taken from patent publication US6812248B2, “Prevention and treatment of degenerative diseases by glutathione and phase II detoxification enzymes” (John Hopkins University School of Medicine, priority 2000, dated 2004).

The subject of assay [1] is motor neurons. The note with it: earlier use of the culture system as preclinical screen; cited from earlier work.
Assay [2] concerns SOD-G93 mice. The note with it: oral daily gavage from weaning; expected result.
Assay [3] relates to glutathione transferase (GST). The procedure:
(§1) Mouse spinal cord cultures were prepared and cultured according to Rothstein, J D and Kuncl, R W. J. Neural Chem. 65:643-651 (1995). Cultures were treated with sulforaphane for 24 hours at concentrations of 0,1 μm, 5 μm, 10 μm and 20 μm.
(§2) Mouse spinal cord cultures were prepared and cultured as above. Cultures were treated with sulforaphane for 2 weeks, twice a week, at concentrations of 1 μm, 5 μm and 10 μm.

The subject of assay [4] is quinone reductase (QR). The procedure:
as §1, §2

Assay [5] relates to motor neurons. Particulars: spinal cord explant; sulforaphane 0.5, 5, 10 μM for 3 weeks; FIG. 1. The protocol: The general experimental procedure of THA-induced cytotoxicity was previously described (Ho T et al., Experimental Neurology, 161, 664-675, 2000), the contents of which are incorporated herein by reference. Rodent spinal cord tissue slices were treated with THA and/or sulforaphane. Sulforaphane was administered at concentrations at 0, 0.5 μM, 5 μM and 10 μM for 3 weeks, changing medium every three days. At the end of the experiment, each tissue slice was fixed and stained, and remaining neurons were counted.

Assay [6] deals with glutathione (GSH). Particulars: 1, 5 or 10 μM for 12 h, 24 h or 48 h; no THA; FIG. 2. The procedure: Rat spinal cord slices were similarly prepared and cultured as in the above example but without THA treatment. The tissues were cultured for one or two weeks and then incubated with 1 μM, 5, μM, or 10 μM, of sulphoraphane for 12 h, 24 h or 48 h. The tissue slices were then harvested and sonicated and assayed for total GSH content (Richie J P et al., Clinical Chemistry, 42, 64-70, 1996, the contents of which are incorporated herein by reference).

For assay [7], the system named is brain glutathione. As to the kind of experiment: Blood-brain barrier permeability / whole brain GSH levels after daily oral gavage. Particulars: one week, whole brain homogenate, FIG. 5.
Where [8] appears, read: treated 2 weeks, twice a week, at 1, 5, 10 μm, FIG. 4.
The mark [9] stands for this setting: treated 24 hours at 1, 5, 10, 20 μm, FIG. 3.

Like-named read-outs stand apart in the source and are kept apart here. Some results are limits rather than exact numbers.

As to `NCC1(CC(=O)O)CCCCC1` [gabapentin, reference compound], the “Protection against chronic motor neuron degeneration” value (from here on “Protection”) in assay [1] is recorded as “protective”.
Consider `Nc1nc2ccc(OC(F)(F)F)cc2s1` [riluzole, reference compound], for which, in assay [1], the “Protection” value is “protective”.
In the case of `C[S+]([O-])CCCCN=C=S` (stereo not shown) [sulforaphane], the “Survival of the animals compared to control” value in assay [2] is given as “will improve the survival”. In addition, the “Induction of GST activity” value in assay [3] (setting [8]) and in assay [3] (setting [9]) was “induced” each time. Further, the “Induction of QR activity” value in assay [4] (setting [8]) and in assay [4] (setting [9]) was “induced” each time. Also, the “Prevention of THA-induced motor neuron death” value in assay [5] is “significantly prevented THA-induced motor neuron death”. In assay [6], the “Rise of GSH level in treated spinal cord tissue” value is recorded as at most 160%. Also, the “Brain GSH levels” value in assay [7] was “elevate GSH levels in the brain”.
Turning to “insulin growth factor (IGF-1): insulin growth factor, potential neuroprotective agent”, the “Protection” value in assay [1] is given as “protective”.

B1: ciliary neurotrophic factor (CNTF): ciliary neurotrophic factor (protein, UniProt P26441 1-200, looked up)
Ciliary neurotrophic factor: MAFTEHSPLTPHRRDLCSRSIWLARKIRSDLTALTESYVKHQGLNKNINLDSADGMPVASTDQWSELTEAERLQENLQAYRTFHVLLARLLEDQQVHFTPTEGDFHQAIHTLLLQVAAFAYQIEELMILLEYKIPRNEADGMPINVGDGGLFEKKLWGLKVLQELSQWTVRSIHDLRFISSHQTGIPARGSHYIANNKKM
Consider B1, for which the “Protection” value in assay [1] is given as “failed to protect”.

B2: brain-derived neurotrophic factor (BDNF): brain-derived neurotrophic factor (protein, UniProt P23560 129-247, looked up)
Neurotrophic factor BDNF: HSDPARRGELSVCDSISEWVTAADKKTAVDMSGGTVTVLEKVPVSKGQLKQYFYETKCNPMGYTKEGCRGIDKRHWNSQCRTTQSYVRALTMDSKKRIGWRFIRIDTSCVCTLTIKRGR
modifications: Neurotrophic factor BDNF
For B2, in assay [1], the “Protection” value is “failed to protect”.
